# Reference: PubChem BioAssay (NCI)
#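 Step 1: Grow cells in 96-well plates. Step 2: Expose to compound for 48 hours at 5 concentrations. Step 3: Interpolate endpoints linearly; if unreached, use highest concentration. GI50 = concentration required for 50% inhibition of growth. At the TGI there is no net growth.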 Starred links: 1 amine or outer side, 2 acyl side, 3 side chain; linkers in the order of their positions; H or OH if unused. Non-standard residues stand in square brackets, D forms with d. Residues, ends and D or L forms follow the SMILES beside them. *: point of attachment. X14 = C/C=C/CC(C)C(O)[C@H](N[*:1])C(=O)[*:2]; Decanoyl = CCCCCCCCCC(=O)*; Leu(ol) = CC(C)C[C@H](N)CO; Iva = CC[C@](C)(N)C(=O)O; Aib = CC(C)(N)C(=O)O
# How the values were obtained:
# Assay in all cases: NCI-60 cell line screen, 48 h
# 786-0 renal = tested on: 786-0 renal
# A498 renal = tested on: A498 renal
# A549 NSCLC = tested on: A549 NSCLC
# ACHN renal = tested on: ACHN renal
# BT-549 breast = tested on: BT-549 breast
# CAKI-1 renal = tested on: CAKI-1 renal
# CCRF-CEM leukemia = tested on: CCRF-CEM leukemia
# COLO 205 colon = tested on: COLO 205 colon
# DU-145 prostate = tested on: DU-145 prostate
# EKVX NSCLC = tested on: EKVX NSCLC
# HCC-2998 colon = tested on: HCC-2998 colon
# HCT-116 colon = tested on: HCT-116 colon
# HCT-15 colon = tested on: HCT-15 colon
# HL-60(TB) leukemia = tested on: HL-60(TB) leukemia
# HOP-92 NSCLC = tested on: HOP-92 NSCLC
# HS 578T breast = tested on: HS 578T breast
# HT29 colon = tested on: HT29 colon
# IGROV1 ovarian = tested on: IGROV1 ovarian
# K-562 leukemia = tested on: K-562 leukemia
# KM12 colon = tested on: KM12 colon
# LOX IMVI melanoma = tested on: LOX IMVI melanoma
# M14 melanoma = tested on: M14 melanoma
# MALME-3M melanoma = tested on: MALME-3M melanoma
# MCF7 breast = tested on: MCF7 breast
# MDA-MB-231 breast = tested on: MDA-MB-231 breast
# MDA-MB-435 = tested on: MDA-MB-435
# MOLT-4 leukemia = tested on: MOLT-4 leukemia
# NCI-H226 lung = tested on: NCI-H226 lung
smiles,measurement,setting,value
C/C=C/CC(C)C(O)[C@H](NC(=O)[C@@H]1CCCN1C(=O)C(C)(C)NC(=O)CCCCCCCCC)C(=O)N[C@@](C)(CC)C(=O)N[C@@H](CCC(N)=O)C(=O)N[C@H](CCC(N)=O)C(=O)NC(C)(C)C(=O)N[C@@](C)(CC)C(=O)N[C@@H](CCC(N)=O)C(=O)N[C@H](CC(C)C)C(=O)N[C@H](CO)CC(C)C (stereo partly drawn) (Decanoyl-[Aib]P[X14][Iva]Q[dQ][Aib][Iva]Q[dL][Leu(ol)]),GI50,786-0 renal,284 nM
same,TGI,786-0 renal,1440 nM
same,GI50,A498 renal,242 nM
same,TGI,A498 renal,721 nM
same,GI50,A549 NSCLC,95.6 nM
same,TGI,A549 NSCLC,1160 nM
same,GI50,ACHN renal,87.7 nM
same,TGI,ACHN renal,1130 nM
same,GI50,BT-549 breast,304 nM
same,TGI,BT-549 breast,829 nM
same,GI50,CAKI-1 renal,206 nM
same,TGI,CAKI-1 renal,659 nM
same,GI50,CCRF-CEM leukemia,152 nM
same,TGI,CCRF-CEM leukemia,1180 nM
same,GI50,COLO 205 colon,49 nM
same,TGI,COLO 205 colon,187 nM
same,GI50,DU-145 prostate,318 nM
same,TGI,DU-145 prostate,1530 nM
same,GI50,EKVX NSCLC,173 nM
same,TGI,EKVX NSCLC,1430 nM
same,GI50,HCC-2998 colon,107 nM
same,TGI,HCC-2998 colon,1600 nM
same,GI50,HCT-116 colon,87 nM
same,TGI,HCT-116 colon,1200 nM
same,GI50,HCT-15 colon,297 nM
same,TGI,HCT-15 colon,1270 nM
same,GI50,HL-60(TB) leukemia,29.1 nM
same,TGI,HL-60(TB) leukemia,114 nM
same,TGI,HOP-92 NSCLC,83.6 nM
same,GI50,HS 578T breast,297 nM
same,TGI,HS 578T breast,1720 nM
same,GI50,HT29 colon,97.4 nM
same,TGI,HT29 colon,1350 nM
same,GI50,IGROV1 ovarian,406 nM
same,TGI,IGROV1 ovarian,1750 nM
same,GI50,K-562 leukemia,41.8 nM
same,TGI,K-562 leukemia,1090 nM
same,GI50,KM12 colon,75.2 nM
same,TGI,KM12 colon,1170 nM
same,GI50,LOX IMVI melanoma,164 nM
same,TGI,LOX IMVI melanoma,697 nM
same,GI50,M14 melanoma,61.5 nM
same,TGI,M14 melanoma,1320 nM
same,GI50,MALME-3M melanoma,30.9 nM
same,TGI,MALME-3M melanoma,643 nM
same,GI50,MCF7 breast,59.4 nM
same,TGI,MCF7 breast,1160 nM
same,GI50,MDA-MB-231 breast,274 nM
same,TGI,MDA-MB-231 breast,990 nM
same,GI50,MDA-MB-435,111 nM
same,TGI,MDA-MB-435,1200 nM
same,GI50,MOLT-4 leukemia,259 nM
same,TGI,MOLT-4 leukemia,1140 nM
same,GI50,NCI-H226 lung,182 nM
